We go through five compounds from paper PMC10269165 (Antimicrobial Agents and Chemotherapy, 2023).

The structures appear in SMILES notation.

The subject of this series is HCT-8 cells. In words: WST-1 cytotoxicity assay in HCT-8 cells. Type of series: cell-based, human. To be noted: 24 h, read-out: Mean IC50 ± SEM, Cytotoxicity. The protocol: Compounds were tested for cytotoxicity in human ileocecal colorectal adenocarcinoma cells (HCT-8) (ATCC CCL-244; RRID:CVCL_2478) by using the cell proliferation reagent WST-1 (Roche) according to the manufacturer’s protocol. The WST-1 assay is a quantitative colorimetric assay for measurement of metabolically active cells. This assay is based on the reduction of the tetrazolium salt (WST-1) by viable cells. About 5 × 10^4 HCT-8 cells were seeded per well in 96-well plates and grown overnight in 200 μL of RPMI 1640 medium (without phenol red; Gibco) supplemented with 2.5 g/L of glucose, 1 mM sodium pyruvate, 1.5 g/L of sodium bicarbonate, 10% heat-inactivated FBS (Gibco), and 1× antibiotic-antimycotic (Gibco) at 37°C with 5% CO2 in a humidified incubator. Upon reaching 80 to 90% confluence, cells were treated with various concentrations of the test compounds for 24 h. Control wells received equivalent volumes of DMSO used in the reconstituted compounds. After 24 h of culture, 10 μL of the WST-1 reagent was added to each well, and the plates were incubated in the dark for 1 h at 37°C with 5% CO2. The plates were well agitated, and 150 μL of the medium from each well was transferred to a new clear flat-bottomed black 96-well plate (Corning). The absorbance was read at a test wavelength of 440 nm and a reference wavelength of 690 nm using a multimode microplate reader (Spectra Max iD3; Molecular Devices, USA). All of the reactions were prepared in triplicate. The dose-response curves were generated by nonlinear regression analysis with GraphPad PRISM software using control-normalized data to determine the half-maximal cytotoxicity (IC50) concentrations.
On the technique in general: Tetrazolium assays rely on reduction of a dye to a coloured formazan, in cell work by metabolically active cells.
For the compound `COc1ccc(-c2c(C)c(C(=O)O)nc(-c3ccc4c(O)c(OC)c5c(c4n3)=NC(C)(C)N=5)c2N)c(O)c1OC` [NSC62709], the half-inhibitory concentration (IC50) was determined as 299 ± 6.27 µM.
With `COc1cc(C)c2c(c1C=O)Oc1c(c(C)c(O)c3c1C(O)OC3=O)OC2=O` (centres unmarked) [NSC87511] the figure was 172 ± 8.68 µM; with `CO[C@H]1/C=C/O[C@@]2(C)Oc3c(C)c(O)c4c(O)c(cc(O)c4c3C2=O)NC(=O)/C(C)=C\C=C\[C@H](C)[C@H](O)[C@@H](C)[C@@H](O)[C@@H](C)[C@H](OC(C)=O)[C@@H]1C` [NSC133100], 102 ± 16.6 µM; with `CO[C@@H]1/C=C\O[C@]2(C)Oc3c(C)c(O)c4c(O)c(c(CN(C)C)c(O)c4c3C2=O)NC(=O)/C(C)=C\C=C[C@@H](C)[C@@H](O)[C@H](C)[C@@H](O)[C@H](C)[C@H](OC(C)=O)[C@@H]1C` [NSC145612], 302 ± 9.33 µM.
Then `CO[C@@H]1/C=C/O[C@@]2(C)Oc3c(C)c(O)c4c(c3C2=O)C(=N[C@@H]2CC[C@@H](O)O[C@H]2C)C=C(NC(=O)/C(C)=C\C(=O)[C@@H]2C[C@@H]2[C@H](O)[C@@H](C)[C@@H](O)[C@@H](C)[C@H](OC(C)=O)[C@@H]1C)C4=O` [NSC177383], with 85.5 ± 2.77 µM.

The term IC50 denotes the concentration at which inhibition is half-maximal.
